According to patent US4801610A, “Phenolic ester derivatives as elastase inhibitors” (G. D. Searle & Co., priority 1987, dated 1989):

Target: T1, Human Leukocyte Elastase (HLE) (Homo sapiens, UniProt P08246)
T1 sequence (P08246 30-247 limits assumed): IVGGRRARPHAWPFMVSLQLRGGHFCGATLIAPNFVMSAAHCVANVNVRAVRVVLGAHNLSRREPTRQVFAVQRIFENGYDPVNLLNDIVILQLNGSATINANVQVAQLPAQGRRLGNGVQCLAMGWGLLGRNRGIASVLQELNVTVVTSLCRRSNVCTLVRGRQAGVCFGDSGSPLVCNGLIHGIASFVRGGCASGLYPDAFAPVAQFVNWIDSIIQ
Assay: Inhibition of Human Leukocyte Elastase (HLE), hydrolysis of Methoxysuccinyl-Ala-Ala-Pro-Val-nitroanilide
Format: biochemical
Details: tris-HCl buffer pH 8.0, absorption at 410 nm, read-out: Inhibition of Elastase IC50, [Molar]
Procedure: Several biochemical and animal model tests can be used to examine the ability of the derivatives of the invention to prevent or alleviate the harmful biological action of elastase. The biochemical assays permit direct measurement of drug controlled inhibition of elastase fragmentation of proteins. […] In these tests, protease reaction with the substrate is measured in the presence and absence of the drug to be tested. Inhibition of protease action is indicated by a decrease in the amount of substrated fragmented. The basic parameters for such biochemical assays have been reported in the literature: J. Biol. Chem., 255, 5435 (1980); Biochem. Biophys Acta., 268, 257 (1973); Anal. Biochem. 48,9 (1972); and Biochemistry, 20, 3675 (1981). EXAMPLE 42 Inhibition of Human Leukocyte Elastase (HLE) This test measures the rate of hydrolysis of Methoxysuccinyl-[…]-nitroanilide by HLE in the presence and absence of the compound to be tested. The procedure used is as follows. […] The test hydrolysis solution was then prepared by adding 850 microliters buffer, 50 microliters derivative solution, 50 microliters peptide solution and 50 microliters of HLE solution to a 1 cm. semi-micro cuvette. The cuvette was capped, slightly shaken and placed in the light chamber of a recording colorimeter where the increase in absorption at 410 nm. due to liberated nitroaniline was measured. Using this procedure, the one minute change in absorption of the test sample containing derivative was compared to the change in absorption in the absence of derivative. A 20% or more decrease in the rate of absorption was interpreted as a positive inhibition.

SMILES	IC50
CCCC(C)(C)C(=O)Oc1ccc(C(=O)c2ccc(OC(=O)C(C)(C)CCC)cc2)cc1 [Example 7, 4,4'-α,α-dimethylvaleroyloxybenzophenone]	0.67 µM
CC(C)(C)C(=O)Oc1cc(C(=O)c2ccc(OC(=O)C(C)(C)C)c(OC(=O)C(C)(C)C)c2OC(=O)C(C)(C)C)cc(OC(=O)C(C)(C)C)c1OC(=O)C(C)(C)C [Example 9, 3,4,5,4',5',6',-hexapivaloyloxybenzophenone]	0.36 µM
CC(C)(C)C(=O)Oc1ccc(C(=O)c2ccc(OC(=O)C(C)(C)C)cc2)cc1 [Example 1a, 4,4'-dipivaloyloxybenzophenone]	0.06 µM
CC(C)(C)C(=O)Oc1ccc(C(=O)c2ccc(OC(=O)C(C)(C)C)cc2OC(=O)C(C)(C)C)cc1 [Example 2, 2,4,4'-tripivaloyloxybenzophenone]	0.055 µM
CC(C)(C)C(=O)Oc1ccc(C(=O)c2ccccc2)cc1 [Example 1, 4-pivaloyloxybenzophenone]	0.62 µM
CC(C)(C)C(=O)Oc1ccc(C(=O)c2ccccc2)c(OC(=O)C(C)(C)C)c1 [Example 13, 2,4-dipivaloyloxybenzophenone]	0.084 µM
CC(C)(C)C(=O)Oc1ccc(C(=O)c2ccc(Cl)cc2)cc1 [Example 6, 4-pivaloyloxy-4'-chlorobenzophenone]	0.29 µM
CC(C)(C)OC(=O)Oc1ccc(C(=O)c2ccc(OC(=O)OC(C)(C)C)cc2)cc1 [Example 14, 4,4'-di(t-butyloxycarbonyloxy)benzophenone]	0.9 µM

The next lines start with the values.

IC50	SMILES
0.35 µM	CC(C)(C)C(=O)Oc1ccc(C(=O)c2ccccc2)cc1CCCO [Example 29, 3-(3-hydroxyoropyl)-4-pivaloyloxybenzophenone]
0.45 µM	CC(C)(C)C(=O)Oc1ccc(Cc2ccc(OC(=O)C(C)(C)C)cc2)cc1 [Example 39, 4,4'-dipivaloyloxydiphenylmethane]
0.8 µM	C=CCc1cc(C(=O)c2ccccc2)ccc1OC(=O)C(C)(C)C [Example 26, 3-allyl-4-pivaloyloxybenzophenone]
0.15 µM	CC(C)C(=O)Oc1ccc(C(=O)c2ccc(OC(=O)C(C)C)cc2)cc1 [Example 40, 4,4'-diisobutyryloxybenzophenone]
0.46 µM	CC(C)(C)C(=O)Oc1ccc(Oc2ccc(OC(=O)C(C)(C)C)cc2)cc1 [Example 16, 4,4'-dipivaloyloxydiphenylether]
0.25 µM	CC(C)C(=O)Oc1ccc(C(=O)c2ccccc2)cc1 [Example 34, 4-isobutyryloxybenzophenone]
0.32 µM	C=CC(C)c1cc(C(=O)c2ccccc2)ccc1OC(=O)C(C)(C)C (stereo not shown) [Example 27, 3-(1-methyl-allyl)-4-pivaloyloxybenzophenone]
0.085 µM	C=C(C)Cc1cc(C(=O)c2ccccc2)ccc1OC(=O)C(C)(C)C [Example 25, 3-methallyl-4-pivaloyloxybenzophenone]
